Laboratory results from ChEMBL document CHEMBL1201862, “PubChem BioAssay data set” (2004).
The source made the active and inactive calls.

Columns and labels:
Leucine aminopeptidase = biological target: T1, Leucine aminopeptidase (Plasmodium falciparum 3D7, UniProt Q8IL11); assay: P. falciparum M17LAP inhibitors, primary screen, biochemical, fluorogenic H-Leu-NHMec substrate, 1536-well (AID 1619); assay type: functional
T1 sequence (Q8IL11 whole entry): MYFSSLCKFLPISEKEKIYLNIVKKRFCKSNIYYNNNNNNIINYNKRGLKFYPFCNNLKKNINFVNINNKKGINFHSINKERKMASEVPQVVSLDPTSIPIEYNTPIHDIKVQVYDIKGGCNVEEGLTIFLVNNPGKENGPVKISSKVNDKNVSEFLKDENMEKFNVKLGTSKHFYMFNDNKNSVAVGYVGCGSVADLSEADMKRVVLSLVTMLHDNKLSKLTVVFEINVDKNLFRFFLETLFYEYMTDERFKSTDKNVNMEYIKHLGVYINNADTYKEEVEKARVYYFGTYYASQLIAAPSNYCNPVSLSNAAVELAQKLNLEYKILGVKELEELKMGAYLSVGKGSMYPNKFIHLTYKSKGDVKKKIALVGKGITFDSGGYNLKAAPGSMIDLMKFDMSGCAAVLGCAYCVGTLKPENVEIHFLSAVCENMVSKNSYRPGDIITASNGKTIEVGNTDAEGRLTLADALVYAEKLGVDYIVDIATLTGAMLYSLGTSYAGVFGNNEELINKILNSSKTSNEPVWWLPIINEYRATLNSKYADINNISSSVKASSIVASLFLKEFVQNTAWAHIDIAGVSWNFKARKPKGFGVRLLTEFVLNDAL

[1] = biological target: T2, Histone-lysine N-methyltransferase NSD2 (Homo sapiens, UniProt O96028); assay type: biochemical
T2 sequence (O96028 whole entry): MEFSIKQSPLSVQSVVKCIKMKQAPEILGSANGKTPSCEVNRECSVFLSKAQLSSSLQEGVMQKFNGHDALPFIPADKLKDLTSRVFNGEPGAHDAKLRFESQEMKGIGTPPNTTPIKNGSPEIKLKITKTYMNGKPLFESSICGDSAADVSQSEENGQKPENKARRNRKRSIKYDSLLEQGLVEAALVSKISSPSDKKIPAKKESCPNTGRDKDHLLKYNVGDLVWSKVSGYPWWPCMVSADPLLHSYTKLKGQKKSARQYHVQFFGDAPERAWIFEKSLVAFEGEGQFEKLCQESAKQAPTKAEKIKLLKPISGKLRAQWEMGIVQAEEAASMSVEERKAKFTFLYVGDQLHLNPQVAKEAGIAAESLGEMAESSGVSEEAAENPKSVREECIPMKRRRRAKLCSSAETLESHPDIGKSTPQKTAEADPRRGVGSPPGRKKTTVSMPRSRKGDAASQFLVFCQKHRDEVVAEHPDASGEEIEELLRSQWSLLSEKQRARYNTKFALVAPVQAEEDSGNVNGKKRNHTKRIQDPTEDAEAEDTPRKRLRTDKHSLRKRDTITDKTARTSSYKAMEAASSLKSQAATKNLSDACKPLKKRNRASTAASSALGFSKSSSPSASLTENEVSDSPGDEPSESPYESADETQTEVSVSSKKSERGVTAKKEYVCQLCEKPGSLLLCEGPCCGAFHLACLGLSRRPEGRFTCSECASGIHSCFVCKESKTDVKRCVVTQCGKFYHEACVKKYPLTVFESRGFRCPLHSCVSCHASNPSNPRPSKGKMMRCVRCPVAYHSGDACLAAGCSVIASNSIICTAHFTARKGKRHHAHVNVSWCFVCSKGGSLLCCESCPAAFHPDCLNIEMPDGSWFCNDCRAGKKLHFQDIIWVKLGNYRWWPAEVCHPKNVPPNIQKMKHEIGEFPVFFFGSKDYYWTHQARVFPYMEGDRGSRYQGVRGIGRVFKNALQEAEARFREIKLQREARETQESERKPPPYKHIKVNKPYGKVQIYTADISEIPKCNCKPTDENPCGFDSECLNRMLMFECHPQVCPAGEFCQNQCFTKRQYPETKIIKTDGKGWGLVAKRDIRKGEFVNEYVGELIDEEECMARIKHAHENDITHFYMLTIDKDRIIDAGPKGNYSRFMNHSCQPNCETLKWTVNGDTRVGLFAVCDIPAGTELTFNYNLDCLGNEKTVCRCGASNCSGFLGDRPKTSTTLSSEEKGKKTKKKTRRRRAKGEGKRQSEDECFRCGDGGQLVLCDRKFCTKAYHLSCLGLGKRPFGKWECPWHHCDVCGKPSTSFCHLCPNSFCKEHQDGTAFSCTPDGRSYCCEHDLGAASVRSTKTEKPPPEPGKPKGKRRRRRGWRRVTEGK

Prothrombin = Prothrombin (Homo sapiens, UniProt P00734); assay: Thrombin 1536 HTS Dose Response Confirmation. [Related pubchem assays: 1046 (Thrombin 1536 HTS; hits were confirmed in this assay)]; assay type: functional
[2] = biological target: T3, Heat shock factor protein 1 (Mus musculus, UniProt P38532); assay: decrease of HSF1-responsive luciferase luminescence – cell-based, NIH3T3, dose retest, confirmation (AID 2382); assay type: functional;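 further: NIH3T3 fibroblasts with HSF1-driven luciferase reporter stressed by proteasome inhibitor MG132; luminescence from HSF1-driven luciferase expression after 8 hours of MG132 stress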
T3 sequence (P38532 whole entry): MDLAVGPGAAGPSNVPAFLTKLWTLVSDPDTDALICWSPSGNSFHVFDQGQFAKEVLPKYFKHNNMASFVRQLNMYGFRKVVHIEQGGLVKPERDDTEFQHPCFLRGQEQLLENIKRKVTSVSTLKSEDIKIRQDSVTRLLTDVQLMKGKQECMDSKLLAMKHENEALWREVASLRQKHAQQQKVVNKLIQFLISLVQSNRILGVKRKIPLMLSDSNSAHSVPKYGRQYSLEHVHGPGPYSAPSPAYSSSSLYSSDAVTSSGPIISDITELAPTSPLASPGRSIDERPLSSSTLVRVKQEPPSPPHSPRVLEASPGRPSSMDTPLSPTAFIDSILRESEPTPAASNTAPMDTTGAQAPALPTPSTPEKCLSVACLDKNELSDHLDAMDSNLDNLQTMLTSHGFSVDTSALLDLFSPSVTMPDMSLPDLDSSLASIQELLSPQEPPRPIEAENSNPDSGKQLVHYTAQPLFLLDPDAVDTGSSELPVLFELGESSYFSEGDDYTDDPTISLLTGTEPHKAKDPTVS

[3] = blockers of bursicon-stimulated LGR2 cAMP reporter – cell-based, HEK293, CRE-luciferase reporter, cherry pick, set 2, dose response (AID 743343); assay type: functional;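 further: transfected cells were stimulated with diluted bursicon conditioned medium after compound addition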
[4] = blockade of melanocortin 4 receptor signaling – cell-based, plate reader, cherry pick, counter-screen for LGR2 antagonist project, dose response (AID 743444); assay type: functional;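 further: transfected HEK 293 cells stimulated with alpha-MSH peptide; potency of inhibitors of the alpha-MSH evoked signal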
[5] = biological target: T4, Rac GTPase-activating protein 1 (Homo sapiens, UniProt Q9H0H5); assay: blockers of MgcRacGAP-driven Rac1 GTP hydrolysis – biochemical, ADP Hunter fluorescence, primary and confirmatory, confirmation (AID 624330); assay type: functional
T4 sequence (Q9H0H5 whole entry): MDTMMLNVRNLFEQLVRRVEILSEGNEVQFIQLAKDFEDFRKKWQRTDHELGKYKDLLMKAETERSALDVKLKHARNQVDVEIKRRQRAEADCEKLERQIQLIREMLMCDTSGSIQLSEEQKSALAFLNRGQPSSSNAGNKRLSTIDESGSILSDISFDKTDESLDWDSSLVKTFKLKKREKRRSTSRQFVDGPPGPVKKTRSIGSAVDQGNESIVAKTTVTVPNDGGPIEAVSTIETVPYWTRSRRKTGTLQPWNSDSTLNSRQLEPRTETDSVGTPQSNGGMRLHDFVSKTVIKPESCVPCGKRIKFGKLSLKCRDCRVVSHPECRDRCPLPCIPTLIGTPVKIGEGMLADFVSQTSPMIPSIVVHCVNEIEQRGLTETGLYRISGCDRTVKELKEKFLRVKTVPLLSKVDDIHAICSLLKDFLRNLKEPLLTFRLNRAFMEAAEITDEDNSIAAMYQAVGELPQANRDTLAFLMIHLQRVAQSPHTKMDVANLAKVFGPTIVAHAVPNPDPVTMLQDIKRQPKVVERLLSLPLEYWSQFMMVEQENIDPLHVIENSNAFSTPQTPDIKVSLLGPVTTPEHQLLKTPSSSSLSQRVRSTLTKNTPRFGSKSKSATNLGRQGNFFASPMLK

Paired box protein Pax-8 = Paired box protein Pax-8 (Homo sapiens, UniProt Q06710); assay: PAX8 transcriptional activity inhibition in RMG-I – RMG-I cells, luciferase, cherry-pick, dose response (AID 687027); assay type: functional, cell-based;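 further: luciferase reporter driven by Pax8 target thyroperoxidase promoter measured by SteadyGlo luminescence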
Chain of Paired box protein Pax-8 (Q06710 whole entry): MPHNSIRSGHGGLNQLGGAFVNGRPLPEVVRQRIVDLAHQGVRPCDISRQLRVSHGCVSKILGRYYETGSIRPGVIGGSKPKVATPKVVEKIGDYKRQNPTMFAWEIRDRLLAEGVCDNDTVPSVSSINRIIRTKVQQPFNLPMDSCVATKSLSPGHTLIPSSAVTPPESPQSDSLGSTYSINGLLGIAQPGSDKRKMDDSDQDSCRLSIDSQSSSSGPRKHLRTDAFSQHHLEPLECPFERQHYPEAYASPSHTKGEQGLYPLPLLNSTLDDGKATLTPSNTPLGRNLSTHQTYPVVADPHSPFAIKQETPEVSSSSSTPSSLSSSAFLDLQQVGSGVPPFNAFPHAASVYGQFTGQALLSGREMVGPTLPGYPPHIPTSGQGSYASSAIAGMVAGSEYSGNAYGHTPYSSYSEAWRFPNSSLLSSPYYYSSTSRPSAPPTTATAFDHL

[6] = OVCAR-3 cell viability loss – plate reader, dry powder samples, PAX8 inhibitor project, dose response (AID 743044); assay type: functional, cell-based
Protein skinhead-1 = biological target: T5, Protein skinhead-1 (Caenorhabditis elegans, UniProt P34707); assay type: functional
T5 sequence (P34707 whole entry): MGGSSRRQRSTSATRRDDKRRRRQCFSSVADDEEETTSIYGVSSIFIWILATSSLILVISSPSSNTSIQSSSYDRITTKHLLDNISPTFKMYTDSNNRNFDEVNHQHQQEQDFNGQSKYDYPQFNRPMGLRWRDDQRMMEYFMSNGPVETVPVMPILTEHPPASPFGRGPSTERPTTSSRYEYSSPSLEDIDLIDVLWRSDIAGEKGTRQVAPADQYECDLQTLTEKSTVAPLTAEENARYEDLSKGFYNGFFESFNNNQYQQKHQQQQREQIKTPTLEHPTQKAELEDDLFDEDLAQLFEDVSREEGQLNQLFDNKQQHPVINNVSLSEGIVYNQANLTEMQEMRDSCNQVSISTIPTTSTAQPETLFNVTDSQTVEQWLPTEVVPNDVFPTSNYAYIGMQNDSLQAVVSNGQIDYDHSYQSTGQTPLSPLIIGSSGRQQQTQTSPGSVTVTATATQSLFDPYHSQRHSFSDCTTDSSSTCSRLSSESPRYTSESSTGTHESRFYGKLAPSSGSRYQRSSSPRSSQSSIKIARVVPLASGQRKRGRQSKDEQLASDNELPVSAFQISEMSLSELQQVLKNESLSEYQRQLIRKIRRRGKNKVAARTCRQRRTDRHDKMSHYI

For `CCCCCOc1ccc(NC(=O)CCCC(=O)O)cc1`, the IC50 (Leucine aminopeptidase) was 11.3 µM (active).

With `COc1cccc(=O)c2c(C)n(-c3ccc(C(=O)O)cc3)c(C)c12` the AC50 [1] was > 20 µM (inactive).

With `COc1ccccc1N1CCN(C(=O)CNC(=O)c2cn(-c3ccccc3OC)c(=O)c3ccccc23)CC1` the IC50 (Prothrombin) was 9.56 µM (active).

For `Cc1cc(C(=O)COC(=O)C2CC2)c(C)n1-c1ccc(F)cc1`, the EC50 [2] was 1.96 µM (active), the AC50 [3] was 0.585 µM (active) and the AC50 [4] was 0.334 µM (active).

For `CCS(=O)(=O)C1=NN2C(=N)/C(=C\c3ccc(O)c(OC)c3)C(=O)N=C2S1`, the IC50 (Leucine aminopeptidase) was 35.2 µM (active) and the IC50 [5] was 37.2 µM (active).

For `CCCOP(=O)(c1ccc(N(C)C)cc1)C(O)c1ccncc1` (configuration not stated), the IC50 (Prothrombin) was > 50 µM (not active).

In the case of `Cc1ccc(C)c(NC(=O)C2CC=CCC2C(=O)O)c1` (configuration not stated), the IC50 (Leucine aminopeptidase) is reported as 18.6 µM (active).

In the case of `Cc1ccc(C(=O)CSc2nc(C)cc(C)c2C(N)=O)cc1`, the IC50 (Prothrombin) is reported as > 50 µM (not active).

With `O=C1C(=O)N(CCS(=O)(=O)c2ccccc2)c2ccc(F)cc21` the AC50 [1] was 8.09 µM (active).

In the case of `Cc1ccc(S(=O)(=O)N(C)C[C@@H]2Oc3cc(C#Cc4ccncc4)ccc3S(=O)(=O)N([C@H](C)CO)C[C@@H]2C)cc1`, the AC50 (Paired box protein Pax-8) is reported as 6.03 µM (active) and the AC50 [6] is reported as 22.4 µM (active).

For `C/C(=N\NC(=S)NC1CCCCC1)c1cccc(Br)c1`, the IC50 (Prothrombin) was > 50 µM (inconclusive).

In the case of `CSc1nc(-c2ccco2)nn1C(=O)c1ccc(C)cc1`, the IC50 (Prothrombin) is reported as 0.16 µM (active) and the IC50 (Protein skinhead-1) is reported as > 100 µM (inactive).
